These results are taken from patent US9035044B2, “L-proline and citric acid co-crystals of (2S, 3R, 4R, 5S,6R)-2-(3-((5-(4-fluorophenyl)thiopen-2-yl)methyl)4-methylphenyl)-6-(hydroxymethyl)tetrahydro-2H-pyran-3,4,5-triol” (Janssen Pharmaceutica NV, priority 2011, dated 2015).

What all share (type): physicochemical
Data set [1] can be described thus: Chemical stability/degradation of stored samples by HPLC. Particulars: 1 week. How it is done:
Samples of the crystalline L-proline co-crystal of the compound of formula (I-X) being tested for physical stability, sampled at 1 day, 1 week, 2 weeks and 4 weeks, were further tested for chemical stability/degradation. Crystalline L-proline co-crystal of the compound of formula (I-X) (˜10 mg) was diluted with a 50:50 water:acetonitrile solution (10 mL), and then further diluted 10 fold for HPLC measurements.
Samples of the crystalline citric acid co-crystal of the compound of formula (I-X) being tested for physical stability, sampled at 1 day, 1 week, 2 weeks and 4 weeks, were further tested for chemical stability/degradation. Crystalline citric acid co-crystal of the compound of formula (I-X) (˜10 mg) was diluted with a 50:50 water:acetonitrile solution (10 mL), and then further diluted 10 fold for HPLC measurements.

The nature of data set [2]: Dynamic vapor sorption/desorption (DVS). Particulars: for hygroscopicity: 0% RH to 90% RH, 2 full cycles; for form conversion by pXRD after the DVS run: isolated at 0% RH. How it is done:
DVS: Moisture sorption was characterized on a DVS-1 Instrument (Surface Measurement Systems, Allentown, Pa.). In each case, the sample was subject to a drying curve from ambient to 0% relative humidity (RH), followed by two cycles of sorption (from 0% RH to 90% RH) and desorption (from 90% RH to 0% RH) in 10% RH steps at 25° C. At each step the sample was allowed to equilibrate at a specific % RH and thus, stabilize in terms of weight gained or lost prior to the instrument moving to the next step within the method.
The crystalline L-proline co-crystal of the compound of formula (I-X) was further characterized using Dynamic Vapor Sorption (DVS), measuring from 0% RH to 90% RH (2 full cycles) at 25° C.
The crystalline citric acid co-crystal of the compound of formula (I-X) was further characterized using Dynamic Vapor Sorption (DVS), measuring from 0% RH to 90% RH (2 full cycles) at 25° C.

Data set [3] can be described thus: Physical stability on storage in serum crimp vials. Particulars: up to 4 weeks; for physical stability: 5° C. sealed, 25° C./60% RH open, 40° C. sealed, 40° C./75% RH open, 60° C. sealed, 80° C. sealed. How it is done:
The crystalline L-proline co-crystal of the compound of formula (I-X) was tested for physical stability by storing about 10 mg of the co-crystal in 10 mL serum crimp vials, under following conditions: (a) 5° C., sealed; (b) 25° C./60% RH, open; (c) 40° C., sealed; (d) 40° C./75% RH, open; (e) 60° C., sealed; and (f) 80° C., sealed; with stability data collected at 1 day, 1 week, 2 weeks and 4 weeks.
The crystalline citric acid co-crystal of the compound of formula (I-X) was similarly tested for physical stability by storing about 10 mg of the co-crystal in […], under following conditions: (a) 5° C., sealed; (b) 25° C./60% RH, open; (c) 40° C., sealed; (d) 40° C./75% RH, open; (e) 60° C., sealed; and (f) 80° C., sealed; with stability data collected at 1 day, 1 week, 2 weeks and 4 weeks.

[4] abbreviates: all six storage conditions, 1 day, 2 weeks and 4 weeks.
Where [5] appears, read: 25° C./60% RH open and 60° C. sealed, 2 week and 4 week samples.
[6] abbreviates: 40° C./75% RH open and 80° C. sealed, 2 week and 4 week samples.

Structures are written as SMILES.

As to `Cc1ccc([C@@H]2O[C@H](CO)[C@@H](O)[C@H](O)[C@H]2O)cc1Cc1ccc(-c2ccc(F)cc2)s1` [crystalline L-proline co-crystal of the compound of formula ] [(2S,3R,4R,5S,6R)-2-(3-((5-(4-fluorophenyl)thiophen-2-yl)methyl)-4-methylphenyl)-6-(hydroxymethyl)tetrahydro-2H-pyran-3,4,5-triol], in data set [1] (setting [4]), the “chemical stability (HPLC)” value is given as “chemically stable” and the “degradation peaks (HPLC)” value is given as “No degradation peaks were observed”. Moreover, in data set [2] (25° C.), the hygroscopicity result is reported as “hygroscopic”. In data set [2] (between 40% RH and 90% RH, 25° C., lost on desorption with some hysteresis), this molecule came in with a mass gain of 12%. For the same molecule, the “form conversion by pXRD after the DVS run” value in data set [2] was “no irreversible form conversion”. Also, the weight gain result in data set [2] (until % RH reached 40%, 25° C.) is on record as “no weight gain was observed”. Also, the physical stability result in data set [3] is on record as “physically stable”. The visible color changes result in data set [3] (all six storage conditions) is “no visible color changes”.

On to `Cc1ccc([C@@H]2O[C@H](CO)[C@@H](O)[C@H](O)[C@H]2O)cc1Cc1ccc(-c2ccc(F)cc2)s1` [crystalline citric acid co-crystal of the compound of formul] [(2S,3R,4R,5S,6R)-2-(3-((5-(4-fluorophenyl)thiophen-2-yl)methyl)-4-methylphenyl)-6-(hydroxymethyl)tetrahydro-2H-pyran-3,4,5-triol], for which the “degradation peaks (HPLC)” value in data set [1] (setting [5]) is “A small degradation peak was observed”; in data set [1] (setting [6]), “A few small degradation peaks were also observed”. For the same molecule, the “peak purity (HPLC)” value in data set [1] (setting [5]) and in data set [1] (setting [6]) was above 99% throughout. In addition, the “chemical stability (HPLC)” value in data set [1] (stored at 5° C. sealed and 40° C. sealed, 1 day, 2 weeks and 4 weeks) is on record as “chemically stable”. In addition, the hygroscopicity result in data set [2] (25° C.) is “non-hygroscopic”. The same molecule registered an increase in mass in data set [2] (0%-80% RH, 25° C., lost again on desorption) of 0.5%. Also, the “form conversion by pXRD after the DVS run” value in data set [2] is “no form conversion”. For the same molecule, in data set [3], the physical stability result is “physically stable”. For the same molecule, the “degradation on a peak basis” value in data set [3] (stored at 25° C./60% RH, 40° C./75% RH, 60° C. or 80° C.) is below 0.3%.
